Laboratory results: patent US6610697B1, “Substituted 2-aryl-3-(heteroaryl)-imidazo[1,2-a]pyrimidines, and related pharmaceutical compositions and methods” (Ortho-McNeil Pharmaceutical, Inc., priority 1999, dated 2003)

Experiments:
[1] = system: LPS-induced TNF-α production; assay: In vivo rodent assay, LPS-induced TNF-α production; conditions: Mus musculus; BALB/cJ female mice, oral 10 mg/kg, LPS 1 mg/kg i.p. 30 min after dosing, serum TNF-α 1 h later
Experimental: Mice (BALB/cJ females, Jackson Laboratories) were fasted for 30 min. prior to oral dosing with 5-10 mL/kg of a test compound at 5-50 mg/kg. Thirty minutes after dosing, the animals were injected intraperitoneally with LPS at 1 mg/kg and returned to their cages for 1 h. Animals were anesthetized by CO2, exsanguinated by cardiac puncture and whole blood collected (0.1-0.7 mL). The blood was allowed to clot and serum was transferred to a centrifuge tube. This sample was centrifuged, and serum was collected, aliquoted, and frozen at −80° C. Samples were tested by commercial ELISA's for TNF-α (Endogen for mouse TNF-α). The % inhibition of the test compounds was calculated by the following formula: % inhibition=[1-(sample-BKG)/(CTRL-BKG)]×100.

[2] = system: TNF-α; assay: PBMC whole cell assay (LPS/PBMC, TNF-α ELISA); format: cell-based; conditions: human PBMC, LPS stimulation overnight
Experimental: Representative compounds of the present invention were tested in an in vitro whole cell assay using peripheral blood mononuclear cells (“PBMC's”) which were obtained from human blood as follows. Freshly obtained venous blood was anticoagulated with heparin, diluted with an equal volume of phosphate buffered saline (“PBS”) and placed in a sterile tube or other container. Aliquots (30 mL) of this mixture were transferred to centrifuge tubes which were underlaid with Ficoll-Hypaque (15 mL). The prepared tubes were centrifuged at 400×g without braking for 30 min at room temperature. Approximately ½ to ⅔ of the platelet layer above the mononuclear cell band was removed with a pipette. The majority of the mononuclear cell layer was carefully removed using a pipette and these PBMC's were diluted with PBS and spun at 600×g for 15 min. The resulting PBMC's were washed with another portion of PBS and spun at 400×g for 10 min at room temperature. The recovered pellets were diluted in low endotoxin RPMI/1% FCS culture medium and gave a cell concentration of 0.5-2.0×10^6 PMBC/mL. A small volume of the suspension was removed for counting on a hemocytometer and the remaining preparation was centrifuged at 200×g for 15 min at room temperature. The recovered pelleted PMBC's were re-suspended in RPMI/1% FCS to a concentration of 1.67×10^6/mL.
To run the assay, the PBMC suspension (180 μL) was transferred to duplicate wells of a 96-well flat-bottom microtiter plate and incubated for 1 h at 37° C. A solution of test compound (10 μL, prepared at 20×the desired final concentration) was added to each well and the plate was incubated for 1 h at 37° C. A solution (10 μL) of LPS in RPMI/1% FCS (200 ng/mL) was added and the wells were incubated overnight at 37° C. The supernate (100 μL) was removed from each well and diluted with RPMI/1% FCS (400 μL). The samples were analyzed for TNF-α using a commercial ELISA kit (Genzyme).

SMILES	inhibition in vivo at 10 mg/kg [1] [%]	IC50 [2] [nM]
Nc1ccn2c(-c3ccncc3)c(-c3cccc(C(F)(F)F)c3)nc2n1 [Compound 7, 3-(4-pyridinyl)-2-[3-(trifluoromethyl)phenyl]-imidazo[1,2-a]pyrimidin-7-amine]	99	35
C[C@H](Nc1nccc(-c2c(-c3cccc(C(F)(F)F)c3)nc3nc(N)ccn23)n1)c1ccccc1 [Compound 9, 3-[2-[[(1S)-1-Phenylethyl]amino]4-pyrimidinyl]-2-[3-(trifluoromethyl)phenyl]imidazo[1,2-a]pyrimidin-7-amine]	97	0.5
COc1nccc(-c2c(-c3ccccc3)nc3nc(N)ccn23)n1 [Compound 23, 3-(2-Methoxy-4-pyrimidinyl)-2-phenylimidazo[1,2-a]pyrimidin-7-amine]	87	90
C[C@H](Nc1nccc(-c2c(-c3ccc(F)cc3)nc3nc(N)ccn23)n1)C1CCCCC1 [Compound 22, 3-[2-[[(1S)-1-Cyclohexylethyl]amino]-4-pyrimidinyl]-2-(4-fluorophenyl)imidazo[1,2-a]pyrimidin-7-amine]	74	1
Nc1ccn2c(-c3ccncc3)c(-c3ccc(F)c(Cl)c3)nc2n1 [Compound 4, 2-(3-chloro-4-fluorophenyl)-3-(4-pyridinyl)-imidazo[1,2-a]pyrimidin-7-amine]	100	21
Nc1ccn2c(-c3ccncc3)c(-c3cccc(Cl)c3)nc2n1 [Compound 25, 2-(3-Chlorophenyl)-3-(4-pyridinyl)imidazo[1,2-a]pyrimidin-7-amine]	47	162
Nc1ccn2c(-c3ccncn3)c(-c3ccccc3)nc2n1 [Compound 16, 2-Phenyl-3-(4-pyrimidinyl)imidazo[1,2-a]pyrimidin-7-amine]	73	304
Nc1ccn2c(-c3ccnc(NCc4ccccc4)c3)c(-c3cccc(C(F)(F)F)c3)nc2n1 [Compound 8, 3-[2-[(phenylmethyl)amino]4-pyridinyl]-2-[3-(trifluoromethyl)phenyl]-imidazo[1,2-a]pyrimidin-7-amine]	19	4
CS(=O)(=O)c1nccc(-c2c(-c3ccccc3)nc3nc(N)ccn23)n1 [Compound 17, 3-[2-(Methylsulfonyl)-4-pyrimidinyl]-2-phenylimidazo [1,2-a]pyrimidin-7-amine]		3410
CSc1nccc(-c2c(-c3cccc(F)c3)nc3nc(N)ccn23)n1 [Compound 12, 2-(3-Fluorophenyl)-3-[2-(methylthio)-4-pyrimidinyl]imidazo[1,2-a]pyrimidin-7-amine]	51	10
CSc1nccc(-c2c(-c3ccc(F)cc3)nc3nc(N)ccn23)n1 [Compound 10, 2-(4-Fluorophenyl)-3-[2-(methylthio)-4-pyrimidinyl]imidazo[1,2-a]pyrimidin-7-amine]	68	37
Nc1ccn2c(-c3ccncc3)c(-c3cccc(F)c3)nc2n1 [Compound 2, 2-(3-fluorophenyl)-3-(4-pyridinyl)-imidazo[1,2-a]pyrimidin-7-amine]	100	55
Nc1ccn2c(-c3ccncc3)c(-c3ccccc3)nc2n1 [Compound 5, 2-phenyl-3-(4-pyridinyl)-imidazo[1,2-a]pyrimidin-7-amine]	100	55
Nc1ccn2c(-c3ccncc3)c(-c3ccc(F)cc3)nc2n1 [Compound 1, 2-(4-fluorophenyl)-3-(4-pyridinyl)-imidazo[1,2-a]pyrimidin-7-amine]	100	49
COc1ccc(CNc2nccc(-c3c(-c4ccccc4)nc4nc(N)ccn34)n2)cc1 [Compound 20, 3-[[[(4-Methoxyphenyl)methyl]amino]-4-pyrimidinyl]-2-phenylimidazo[1,2-a]pyrimidin-7-amine]		14
Nc1ccn2c(-c3ccnc(NCc4ccccc4)c3)c(-c3ccc(F)cc3)nc2n1 [Compound 6, 2-(4-fluorophenyl)-3-[2-[(phenylmethyl)amino]4-pyridinyl]-imidazo[1,2-a]pyrimidin-7-amine]	42	6
CS(=O)(=O)c1nccc(-c2c(-c3cccc(C(F)(F)F)c3)nc3nc(N)ccn23)n1 [Compound 18, 3-[2-(Methylsulfonyl)-4-pyrimidinyl]-2-[3-(trifluoromethyl)phenyl]imidazo[1,2-a]pyrimidin-7-amine]	10	520
Nc1ccn2c(-c3ccnc4ccccc34)c(-c3ccc(F)cc3)nc2n1 [Compound 3, 2-(4-fluorophenyl)-3-(4-quinolinyl)-imidazo[1,2-a]pyrimidin-7-amine]	26	333
Nc1ccn2c(-c3ccncn3)c(-c3cccc(C(F)(F)F)c3)nc2n1 [Compound 13, 3-(4-Pyrimidinyl)-2-[3-(trifluoromethyl)phenyl]imidazo[1,2-a]pyrimidin-7-amine]	85	278
C[C@H](Nc1nccc(-c2c(-c3ccccc3)nc3nc(N)ccn23)n1)c1ccccc1 [Compound 19, 2-Phenyl-3-[2-[[(1S)-1-phenylethyl]amino]4-pyrimidinyl]imidazo[1,2-a]pyrimidin-7-amine]	100	0.4
Nc1ccn2c(-c3ccncn3)c(-c3ccc(F)cc3)nc2n1 [Compound 24, 2-(4-Fluorophenyl)-3-(4-pyrimidinyl)imidazo[1,2-a]pyrimidin-7-amine]	91	199
Nc1ccn2c(-c3ccnc(N4CCCCC4)n3)c(-c3ccccc3)nc2n1 [Compound 14, 2-Phenyl-3-[2-(1-piperidinyl)-4-pyrimidinyl]imidazo[1,2-a]pyrimidin-7-amine]	63	8
CSc1nccc(-c2c(-c3cccc(C(F)(F)F)c3)nc3nc(N)ccn23)n1 [Compound 11, 3-[2-(Methylthio)-4-pyrimidinyl]-2-[3-(trifluoromethyl)phenyl]imidazo[1,2-a]pyrimidin-7-amine]	38	27
CSc1nccc(-c2c(-c3ccccc3)nc3nc(N)ccn23)n1 [Compound 15, 3-[2-(Methylthio)-4-pyrimidinyl]-2-phenylimidazo[1,2-a]pyrimidin-7-amine]	23	28
